Measured values published in patent US20050271643A1, “Bacterial strains, compositions including same and probiotic use thereof” (priority 2003, published 2005).

Each molecule was assayed on B. licheniformis PA (assay: Antibiogram by disc diffusion method). Conditions: strain B. licheniformis PA.
Format: cell-based, Bacillus licheniformis

Molecule | Sensitivity or resistance of the strain to the antibiotic (in words)
Polymyxin E | resistant
CC(C)(O/N=C(\C(=O)N[C@@H]1C(=O)N2C(C(=O)[O-])=C(C[n+]3ccccc3)CS[C@H]12)c1csc(N)n1)C(=O)O [Ceftazidim] | resistant
CC1(C)S[C@@H]2[C@H](NC(=O)Cc3ccccc3)C(=O)N2[C@H]1C(=O)O [Benzylpenicillin] | resistant
Cc1onc(-c2ccccc2)c1C(=O)N[C@@H]1C(=O)N2[C@@H]1SC(C)(C)[C@@H]2C(=O)O [Oxacillin] | resistant
C[C@H]1[C@H](NC(=O)/C(=N\OC(C)(C)C(=O)O)c2csc(N)n2)C(=O)N1S(=O)(=O)O [Aztreonam] | resistant
